Experimental findings from US20230322722A1, “MODULATORS OF MYC FAMILY PROTO-ONCOGENE PROTEIN” (Nalo Therapeutics, priority 2020, published 2023) are described below.

As usually defined, the inhibition is how much of the control response was suppressed.

Format in all cases: cell-based
In one assay the target is T1, MycC protein (Homo sapiens, UniProt P01106).
T1 construct: either 2×10^6 of L-363 (human leukemia cell line) or SKNBE2 (neuroblastoma cell line) cells; endogenous in cells; host or cells: L-363 / L363 human leukemia cells
The experiment in a line: Degradation of MycC protein, Western blot, L-363 cells (Example 160). Particulars: for inhibition at 2 µM: 6 h. As for the experimental part:
(§1) In a T150 flask was plated either 2×10^6 of L-363 (human leukemia cell line) or SKNBE2 (neuroblastoma cell line) cells in a total of 30 mL containing Roswell Park Memorial Institute (RPMI) 1640 Medium (Thermo Fisher, Cat. #11875-085), 10% Fetal Bovine Serum (FBS, Thermo Fisher: Cat. #10437-028), 1% Penicillin/streptomycin (Thermo Fisher: Cat. #10378016), and 1% Amophotericin B (Thermo Fisher, Cat. #15290026). The cells were split every 72 hours by reseeding the L-363 or SKNBE2 cells, and the passage number was noted. It is noteworthy that cell cultures that were above 40 passages were not used, and most experiments were done with cells of less than 30 passages.
(§2) In a 6-well cell culture plate, a total of 3 mL of either 1×10^6 cells/mL of L-363 or SKNBE2 cells were seeded, resulting in a total of 3×10^6 cells per well. To each well containing 3 mL of either L-363 or SKNBE2 cell line was added 6 uL of MycN modulating compound (1 mM) and the resulting plate was shaken from left to right, and not swirled. After 6 hours, the cells were placed in a 15 mL falcon tube and spun at 500 Gs at 4° C. in a swinging bucket centrifuge. The medium was then carefully removed without disturbing the pellet. The pellet was then washed with 3 mLs of chilled phosphate buffered saline (PBS) and subjected to the spin cycle. PBS was then removed and the pellet was lysed in 200 uL of radioimmunoprecipitation (RIPA) lysis buffer (Thermo Fisher: Cat. #899000) that is supplemented with protease and phosphatase inhibitors (Thermo Fisher: Cat. #A32959). The cell lysate was then subjected to spinning in a centrifuge for 10 minutes at 13000 G at 4° C. The supernatant was then carefully transferred to a fresh eppendorf tube without disturbing the pellet (˜180 uL). The protein concentration of the cell lysate was then determined by using a bicinchoninic acid (BCA assay) according to manufacturer's protocol (Thermo Fisher: Cat. #23227).
(§3) Cell lysate, approximately 25 ug-30 ug, was loaded per well in a 4-20% polyacrylamide gel (Biorad. Cat. #5671094). After running the dye front off of the gel, the gel was transferred to a nitrocellulose membrane (Biorad: Cat. #1704159) using the transblot turbo system (Biorad: Cat. #1704150) according to manufacturer's protocol. After transferring for 30 minutes, the membrane was blocked with 5% BSA for 1 hour at room temperature. The BSA was then washed off and the primary antibody of choice (1:500) was added, and the membrane was incubated with the primary antibody at 4° C. for overnight. The next morning, the primary antibody was removed and the membrane was washed with 1×-TBST for 10 minutes and repeated three more times. Following the last wash, a secondary antibody (Molecular Devices. Cat. #R8209 or R8208) was added at 1:5000 dilution and incubated for 1 hour at room temperature. Following the incubation with the secondary antibody, the membrane was washed with 1×-TBST for 10 minutes and repeated three more times. Following the last wash, the membrane was washed with de-ionized water twice and dried for at least two hours. Once the membrane is completely dry, the Molecular Devices Spectra Max western system was used to observe the bands. The western image was saved and the band density was measured with ImageJ software.
Background: In western blotting, separated proteins are transferred to a membrane and probed.

In the next assay the target is T2, MycN protein (Homo sapiens, UniProt P04198).
T2 construct: either 2×10^6 of L-363 (human leukemia cell line) or SKNBE2 (neuroblastoma cell line) cells; endogenous in cells; host or cells: SKNBE2 / SK-N-BE(2) neuroblastoma cells
T2 sequence (P04198 1-464): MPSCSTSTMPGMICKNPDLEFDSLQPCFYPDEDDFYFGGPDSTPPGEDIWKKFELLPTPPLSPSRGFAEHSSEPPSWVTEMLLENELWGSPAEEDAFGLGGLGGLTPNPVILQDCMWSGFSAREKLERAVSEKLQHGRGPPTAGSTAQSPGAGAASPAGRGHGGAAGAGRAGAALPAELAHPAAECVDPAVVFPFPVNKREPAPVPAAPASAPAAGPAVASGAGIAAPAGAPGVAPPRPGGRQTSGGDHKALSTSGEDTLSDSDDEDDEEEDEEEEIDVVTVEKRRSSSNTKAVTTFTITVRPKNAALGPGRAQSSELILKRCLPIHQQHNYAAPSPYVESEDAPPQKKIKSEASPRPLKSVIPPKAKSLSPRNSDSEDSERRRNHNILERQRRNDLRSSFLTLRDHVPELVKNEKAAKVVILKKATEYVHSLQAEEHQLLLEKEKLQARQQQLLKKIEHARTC
The experiment in a line: Degradation of MycN protein, Western blot, SKNBE2 cells (Example 160). Particulars: for inhibition at 2 µM: SKNBE2, 6 h. As for the experimental part: as §1, §2, §3

The next assay concerns the target T3, MycN protein (n-myc) (Homo sapiens, UniProt P04198).
T3 construct: either 2×10^6 of L-363 (human leukemia cell line) or SKNBE2 (neuroblastoma cell line) cells; endogenous in cells; host or cells: SKNBE2 / SK-N-BE(2) neuroblastoma cells
T3 sequence (P04198 1-464): T2 sequence (P04198 1-464)
The experiment in a line: Degradation of MycN protein, 24 h treatment, JESS Western, SK-N-BE(2) cells (Example 161). Particulars: SKNBE2 cells. As for the experimental part: (§4) For L363 cells (suspension), 1E6 cells were plated into each well of a 6 well plate. For SK-N-BE(2) cells (adherent), 5E5 cells were plated into each well of a 6 well dish. […] All compounds were diluted to 10 mM in DMSO. Cells were treated with the compound for 24 hrs, then for both cell types, media containing cells were removed from wells into a 15 ml centrifuge tube, and remaining adherent SK-N-BE(2) cells were also scraped from the wells into the appropriate tubes. Tubes were centrifuged, cells were washed with PBS then re-centrifuged to pellet cells. A RIPA buffer cocktail was added to the cells on ice for 5 mins. Cell lysates were clarified by centrifugation and stored at −80 degrees until required. BCA assay was performed on each lysate to determine the protein concentration.
(§5) For validation studies of antibodies, lysates and antibodies were used at a number of concentrations (Lysates: 2, 1, 0.2 mg/ml; Antibodies: 1 in 50, 1 in 200 dilution). Once an appropriate lysate concentration and antibody concentration was determined, samples were screened in the JESS technology (Protein Simple, San Jose, CA—https://www.proteinsimple.com/jess.html).
(§6) Target protein antibodies (n-myc and c-myc) were detected in the chemi-luminescence channel and loading controls (tubulin and GAPDH) were detected using a Near Infra Red (NIR) labeled secondary antibody.
(§7) For SK-N-EB2 adherent cells, 5E5 cells in 1.9 mls media were plated into 6 well dishes and incubated for 24 hrs. […] Cells were scrapped off the plate, centrifuged, washed with PBS, centrifuged, then a RIPA buffer cocktail added to the cells (100 ul), centrifuged and stored at −80 for later analysis. For L363 suspension cells, 1E6 cells were plated into […] (950 ul media) and incubated for 24 hrs. […] Cells were aspirated into tubes, centrifuged, washed with PBS, centrifuged, then a RIPA buffer cocktail added to the cells (100 ul), centrifuged and stored at −80 for later analysis.
(§8) For Western blot, a BCA (total protein) assay was run on all samples, these were then run in batches of 5 compounds plus control (DMSO) on each Western blot run—n-myc and c-myc were run in separate experiments in the chemiluminescence channel. Both tubulin and GAPDH were run as loading controls in all lanes in the near infra red channel.

The next assay addresses T4, MycC protein (c-myc) (Homo sapiens, UniProt P01106).
T4 construct: either 2×10^6 of L-363 (human leukemia cell line) cells; endogenous in cells; host or cells: L-363 / L363 human leukemia cells
In words: Degradation of MycC protein, 24 h treatment, JESS Western, L363 cells (Example 161). Particulars: L-363 cells. As for the experimental part:
as §4, §5, §6, §7, §8

T1 sequence (P01106 whole entry): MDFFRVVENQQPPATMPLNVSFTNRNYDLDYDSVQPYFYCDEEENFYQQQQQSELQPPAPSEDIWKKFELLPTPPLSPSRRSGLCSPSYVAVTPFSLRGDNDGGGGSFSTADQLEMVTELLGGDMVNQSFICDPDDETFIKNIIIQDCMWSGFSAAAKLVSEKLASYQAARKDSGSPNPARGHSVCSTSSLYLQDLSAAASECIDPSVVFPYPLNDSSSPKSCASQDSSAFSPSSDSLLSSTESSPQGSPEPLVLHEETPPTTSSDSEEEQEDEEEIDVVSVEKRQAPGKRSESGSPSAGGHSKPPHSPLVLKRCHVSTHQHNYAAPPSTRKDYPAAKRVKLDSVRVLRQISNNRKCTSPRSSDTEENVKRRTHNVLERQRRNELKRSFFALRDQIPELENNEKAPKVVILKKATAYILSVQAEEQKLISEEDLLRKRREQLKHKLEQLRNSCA
T4 sequence (P01106 whole entry): as above

As for “N-((1R,4R)-4-((4-((5-cyclopropyl-1H-pyrazol-3-yl)amino)pyrimidin-2-yl)(methyl)amino)cyclohexyl)-3-methylcyclopent-3-ene-1-sulfonamide [Compound 153]”, the “% Degradation of MycC (L-363) 6 h, 2 μM” value at MycC protein was “**** (degradation 80-100%)”. In addition, the “% Degradation of MycN (SKNBE2) 6 h, 2 μM” value on MycN protein is given as “**** (degradation 80-100%)”.
Turning to `CN(c1nccc(Nc2cc(C3CC3)[nH]n2)n1)[C@H]1CC[C@H](NS(=O)(=O)Cc2cccc(S(C)(=O)=O)c2)CC1` [Compound 157, N-((1R,4R)-4-((4-((5-cyclopropyl-1H-pyrazol-3-yl)amino)pyrimidin-2-yl)(methyl)amino)cyclohexyl)-1-(3-(methylsulfonyl)phenyl)methanesulfonamide], the inhibition at 2 µM against MycC protein was in the range of 80 to 100%; against MycN protein it was 50 to 79%.
With `COc1ccc(C#N)cc1CC(=O)N[C@H]1CC[C@H](N(C)c2nccc(Nc3cc(C4CC4)[nH]n3)n2)CC1` [Compound 126, 2-(5-cyano-2-methoxyphenyl)-N-((1R,4R)-4-((4-((5-cyclopropyl-1H-pyrazol-3-yl)amino)pyrimidin-2-yl)(methyl)amino)cyclohexyl)acetamide], the values for the inhibition at 2 µM against MycC protein and against MycN protein were 80 to 100% and under 20%, respectively.
As to `CN(c1nccc(Nc2cc(C3CC3)[nH]n2)n1)C1CC2(C1)CN(CC1CC1)C2` [Compound 21, N4-(5-Cyclopropyl-1H-pyrazol-3-yl)-N2-(2-(cyclopropylmethyl)-2-azaspiro[3.3]heptan-6-yl)-N2-methylpyrimidine-2,4-diamine], on MycN protein (n-myc), the inhibition at 0.5 µM was under 20%, the inhibition at 1 µM lay in the range of 20 to 49%, the inhibition at 3 µM was in the range of 20 to 49% and the inhibition at 6 µM is 50 to 79%. On MycC protein (c-myc), this compound showed an inhibition at 1 µM of under 20%, an inhibition at 3 µM of 50 to 79% and an inhibition at 6 µM of 80 to 100%.
Consider `CN1CC2(CC(Nc3nccc(Nc4cc(C5CC5)[nH]n4)n3)C2)C1` [Compound 16, N4-(5-Cyclopropyl-1H-pyrazol-3-yl)-N2-(2-methyl-2-azaspiro[3.3]heptan-6-yl)pyrimidine-2,4-diamine], for which, at MycN protein (n-myc), the inhibition at 0.5 µM fell in the range of 20 to 49%, the inhibition at 1 µM lay within 20 to 49%, the inhibition at 3 µM fell in the range of 80 to 100% and the inhibition at 6 µM is 80 to 100%. On MycC protein (c-myc), this compound had an inhibition at 0.5 µM of 50 to 79%, an inhibition at 1 µM of 80 to 100%, an inhibition at 3 µM of 80 to 100% and an inhibition at 6 µM of 80 to 100%.
On MycN protein (n-myc), `CN(c1nccc(Nc2cc(C3CC3)[nH]n2)n1)C1CC2(C1)CN(Cc1cc(F)cc(F)c1)C2` [Compound 26, N4-(5-Cyclopropyl-1H-pyrazol-3-yl)-N2-(2-(3,5-difluorobenzyl)-2-azaspiro[3.3]heptan-6-yl)-N2-methylpyrimidine-2,4-diamine] came in with an inhibition at 1 µM of under 20% and an inhibition at 6 µM of 20 to 49%. For the same compound, on MycC protein (c-myc), the inhibition at 1 µM is under 20%, the inhibition at 3 µM was under 20% and the inhibition at 6 µM lay in the range of 80 to 100%.
Consider `CN(c1nccc(Nc2cc(C3CC3)[nH]n2)n1)C1CC2(C1)CN(S(=O)(=O)c1cnn(C)c1)C2` [Compound 35, N4-(5-Cyclopropyl-1H-pyrazol-3-yl)-N2-methyl-N2-{2-[(1-methyl-1H-pyrazol-4-yl)sulfonyl]-2-azaspiro[3.3]heptan-6-yl}pyrimidine-2,4-diamine], for which, at MycN protein (n-myc), the inhibition at 0.5 µM was under 20%, the inhibition at 1 µM is 20 to 49%, the inhibition at 3 µM lay within 50 to 79% and the inhibition at 6 µM fell in the range of 80 to 100%. Besides, at MycC protein (c-myc), the inhibition at 0.5 µM was 20 to 49%, the inhibition at 1 µM lay in the range of 50 to 79%, the inhibition at 3 µM was 80 to 100% and the inhibition at 6 µM is 80 to 100%.
At MycN protein (n-myc), `CN(c1nccc(Nc2cc(C3CC3)[nH]n2)n1)C1CC2(C1)CN(C(=O)C1CCOCC1)C2` [Compound 32, (6-((4-((5-Cyclopropyl-1H-pyrazol-3-yl)amino)pyrimidin-2-yl)(methyl)amino)-2 azaspiro[3.3]heptan-2-yl)(tetrahydro-2H-pyran-4-yl)methanone] displayed an inhibition at 3 µM of 80 to 100% and an inhibition at 6 µM of 80 to 100%. Also, at MycC protein (c-myc), the inhibition at 3 µM fell in the range of 80 to 100% and the inhibition at 6 µM lay in the range of 80 to 100%.
At MycN protein (n-myc), `CN1CCC(Nc2nccc(Nc3cc(C4CC4)[nH]n3)n2)CC1` [Compound 37, N4-(5-Cyclopropyl-1H-pyrazol-3-yl)-N2-(1-methylpiperidin-4-yl)pyrimidine-2,4-diamine] returned an inhibition at 1 µM of under 20%, an inhibition at 3 µM of 20 to 49% and an inhibition at 6 µM of 50 to 79%. At MycC protein (c-myc), this compound displayed an inhibition at 3 µM of under 20% and an inhibition at 6 µM of 80 to 100%.
On MycN protein (n-myc), `CN(c1nccc(Nc2cc(C3CC3)[nH]n2)n1)C1CCN(Cc2cccc(S(C)(=O)=O)c2)CC1` [Compound 39, N4-(5-Cyclopropyl-1H-pyrazol-3-yl)-N2-methyl-N2-(1-(3-(methylsulfonyl)benzyl)piperidin-4-yl)pyrimidine-2,4-diamine] showed an inhibition at 3 µM of 80 to 100% and an inhibition at 6 µM of 80 to 100%. On MycC protein (c-myc), the inhibition at 1 µM is 50 to 79%, the inhibition at 3 µM lay within 80 to 100% and the inhibition at 6 µM fell in the range of 80 to 100%.
